According to article PMC9960827, “Cloning and Characterization of Trypanosoma congolense and T. vivax Nucleoside Transporters Reveal the Potential of P1-Type Carriers for the Discovery of Broad-Spectrum Nucleoside-Based Therapeutics against Animal African Trypanosomiasis” (International Journal of Molecular Sciences, 2023):
Where “and” joins values, the source holds several entries; their conditions need not be identical. Equal values may be shown once. Read-outs that look alike come from different tables or passages of the source. Marks after values point to notes of the source that are not given here.

How the values were obtained:
[1] = target: T. congolense adenosine transporter; test: [3H]-adenosine uptake and its inhibition in T. congolense IL3000 bloodstream forms; type: cell-based, Trypanosoma congolense; conditions: 0.05 µM [3H]-adenosine, 30 s; IC50 converted to Ki; read-out: Ki on the transport of [3H]-adenosine
Protocol: (§1) Uptake assays using radiolabeled trypanocides and/or nucleosides were carried out as described previously. Briefly, parasite cultures were harvested, washed twice in assay buffer (33 mM HEPES, 98 mM NaCl, 4.6 mM KCl, 0.5 mM CaCl2, 0.07 mM MgSO4, 5.8 mM NaH3PO4, 0.03 mM MgCl2, 23 mM NaHCO3, 14 mM D-glucose, pH 7.3), then resuspended and adjusted to a density of 1 × 10^8 cells/mL in assay buffer. The radiolabeled permeant in the presence or absence of different concentrations of potential inhibitors reconstituted in 100 μL assay buffer was deposited on top of 250 μL oil mix in microcentrifuge tubes; 1 × 10^7 parasites in 100 μL assay buffer were added to the tube and incubated for a pre-determined interval. The reaction was stopped by the addition of 1 mL of a high concentration of ice-cold unlabeled substrate in assay buffer (‘stop solution’) and centrifugation, or by immediate centrifugation at […] as appropriate. The microcentrifuge tubes were flash-frozen, and the bottom of each tube containing the cell pellet was cut off and transferred to a scintillation vial. Cell pellets were lysed in 2% SDS, after which scintillation fluid (Scintlogic U, Lablogic) was added, followed by overnight incubation in the dark. Scintillation was measured in a 300SL (Hidex) scintillation counter (Hidex). All the assays were conducted in triplicate and analysis was carried out using Microsoft Excel and GraphPad Prism. All kinetic parameters were obtained on at least 3 separate occasions.
(§2) The dose-dependent uptake assay allowed for the affinity of nucleoside analogs to different nucleoside transporters to be determined by measuring the extent to which the analogs compete with and inhibit the uptake of radiolabel adenosine. This allowed for the determination of biochemical parameters such as Km and Vmax through the application of the Michaelis–Menten equation V0 = Vmax([substrate]/([substrate] + Km)). The 50% Inhibitory Concentration (IC50) of the purines and pyrimidines and their analogs was determined from non-linear regression to sigmoid curves with variable slope (Prism 8), and the IC50 of the inhibitor and the Km of the labeled permeant were then used to calculate the inhibition constant (Ki) of the analogs through the Cheng–Prusoff equation: Ki = IC50/(1 + (L/Km)), where L denotes the radiolabel concentration. The calculated Ki was in turn used to determine the Gibbs free energy (ΔG^0) of the inhibitor–transporter interaction using the equation: ΔG^0 = -RTln(Ki), where R represents the gas constant and T symbolizes the absolute temperature in Kelvin [104].

L. mexicana SUPKO+TvxNT3 = test: microbe, parasite or virus in culture; type: cell-based, Leishmania mexicana; conditions: for EC50: read-out: SUPKO+TvxNT3 EC50; for SUPKO+TvxNT3 RF (SUPKO): Resistance Factor relative to SUPKO
Protocol: (§3) EC50 values were determined by plotting to an equation for a sigmoid curve with variable slope (GraphPad Prism 8). All values were the average of at least three independent determinations on different days.

L. mexicana SUPKO+TcoAT1 = test: microbe, parasite or virus in culture; type: cell-based, Leishmania mexicana; conditions: for EC50: read-out: SUPKO+TcoAT1 EC50; for SUPKO+TcoAT1 RF (SUPKO): Resistance Factor relative to SUPKO
Protocol: as §3

L. mexicana SUPKO = test: microbe, parasite or virus in culture; type: cell-based, Leishmania mexicana; conditions: for SUPKO RF (Cas9): Resistance Factor = EC50(SUPKO)/EC50(Cas9)
Protocol: as §3

TcoAT1 [2] = type: cell-based, Trypanosoma congolense; conditions: for Ki: 0.05 µM [3H]-adenosine, 10 s, IC50 converted to Ki, read-out: Ki on the transport of [3H]-adenosine; for ΔG0: Gibbs free energy of binding, from Km or Ki
Text: (§4) The information for the T. congolense adenosine transporter (TcoAT1) and four putative T. vivax nucleoside transporters was obtained in the TritrypDB (tritrypdb.org/tritrypdb) genome database. Primers were designed to flank each gene upstream of the 5′ end (forward) and downstream of the 3′ end (reverse) as described (primer sequences in Supplementary Table S2). Following amplification from the genomic DNA of T. congolense or T. vivax, DNA for each extracted gene was ligated into the pNUS-HcN expression vector doubly digested with NdeI using the NEBuilder kit according to the manufacturer’s instructions (New England Biolabs). Construct was transformed into competent E. coli cells, and ligation was confirmed by restriction enzyme digestion of isolated plasmid DNA followed by Sanger sequencing (Source BioScience, Nottingham, UK). Confirmed plasmids were then transfected into L. mexicana cell line in which both NT1 and NT2 were doubly knocked out (SUPKO) and derived from L. mexicana Cas9 [64] as described. Clones grown in medium containing 50 μg/mL neomycin (G418) were collected for further confirmation by PCR with genomic DNA using a forward primer of the transporter gene and a reverse primer of the plasmid.
as §1, §2

TvxNT3 = TvxNT3 (Trypanosoma vivax, UniProt F9WV62); test: cell-based; type: cell-based
Text: as §4, §1, §2

T. vivax [3] = tested on: T. vivax; parameters: method as in Mabille et al. [69]; conditions: added for comparison only; ref Mabille et al. [69]; cited from earlier work
T. congolense 6C3 [4] = test: microbe, parasite or virus in culture; type: cell-based, Trypanosoma congolense; conditions: for EC50: Trypanosoma congolense, diminazene resistant strain, resazurin, read-out: T. congolense 6C3 EC50; for T. congolense 6C3 RF: resistance factor = EC50 (test strain)/EC50(control strain)
Protocol: as §3

[5] = target: T. b. brucei P1 (TbP1/NT2); conditions: cited from earlier work
T. congolense IL3000 [6] = test: Alamar Blue (resazurin) assay, T. congolense IL3000; type: cell-based, Trypanosoma congolense; conditions: Trypanosoma congolense, read-out: T. congolense IL3000 EC50
Protocol: as §3

L. mexicana Cas9 = test: Resazurin drug sensitivity assay, LmexCas9; type: cell-based, Leishmania mexicana; conditions: read-out: LmexCas9 EC50
Protocol: as §3

T. brucei TbAT1-KO = conditions: cited from earlier work
T.b.b. B48 [7] = test: Alamar Blue (resazurin) assay, T. b. brucei B48; type: cell-based, Trypanosoma brucei brucei; conditions: Trypanosoma brucei, read-out: T.b.b. B48 EC50
Protocol: as §3

TcoAT1 [8] = test: Uptake of [3H]-pentamidine and [3H]-diminazene in SUPKO+TcoAT1 versus SUPKO; type: cell-based, Trypanosoma congolense; conditions: 25 nM [3H]-pentamidine or 50 nM [3H]-diminazene, SUPKO+TcoAT1 vs SUPKO
Protocol: as §1, with “All the assays were conducted in triplicate and analysis was carried out using Microsoft Excel and GraphPad Prism. All kinetic parameters were obtained on at least 3 separate occasions.” left out

[9] = Resazurin toxicity assay on human embryonic kidney cells; type: cell-based; conditions: human
Protocol: as §3

[10] = tested on: human embryonic kidney (HEK) cells; test: as above; type: cell-based; conditions: for SI T. congolense: selectivity index = EC50 (HEK cells)/EC50 (T. congolense); for SI T. equiperdum: selectivity index = EC50 (HEK cells)/EC50 (T. equiperdum); for SI T. evansi: selectivity index = EC50 (HEK cells)/EC50 (T. evansi)
Protocol: as §3

T. evansi [11] = test: Alamar Blue (resazurin) assay, T. evansi; type: cell-based, Trypanosoma evansi; conditions: Trypanosoma evansi, read-out: T. evansi EC50
Protocol: as §3

T. equiperdum [12] = test: Alamar Blue (resazurin) assay, T. equiperdum; type: cell-based, Trypanosoma equiperdum; conditions: Trypanosoma equiperdum, read-out: T. equiperdum EC50
Protocol: as §3

T. congolense 6C3 [13] = tested on: T. congolense 6C3; parameters: method as in Hulpia et al. [38]; conditions: values marked *; ref Hulpia et al. [38]; cited from earlier work
T. evansi [14] = tested on: T. evansi; parameters: method as in Hulpia et al. [38]; conditions: compound marked *; ref Hulpia et al. [38]; cited from earlier work
T. vivax [15] = test: T. vivax EC50 (from Mabille et al.); type: cell-based, Trypanosoma vivax; conditions: from Table 8 data
T. congolense IL3000 [16] = tested on: T. congolense IL3000; parameters: method as in Hulpia et al. [38]; conditions: values marked *; ref Hulpia et al. [38]; cited from earlier work
T.b.b. B48 [17] = tested on: T.b.b. B48; parameters: method as in Hulpia et al. [38]; conditions: compound marked *; ref Hulpia et al. [38]; cited from earlier work
T. equiperdum [18] = tested on: T. equiperdum; parameters: method as in Hulpia et al. [38]; conditions: compound marked *; ref Hulpia et al. [38]; cited from earlier work
[19] = Leishmania mexicana, read-out: SUPKO EC50, resazurin, promastigotes

Chain of TvxNT3 (F9WV62 entry or part of it): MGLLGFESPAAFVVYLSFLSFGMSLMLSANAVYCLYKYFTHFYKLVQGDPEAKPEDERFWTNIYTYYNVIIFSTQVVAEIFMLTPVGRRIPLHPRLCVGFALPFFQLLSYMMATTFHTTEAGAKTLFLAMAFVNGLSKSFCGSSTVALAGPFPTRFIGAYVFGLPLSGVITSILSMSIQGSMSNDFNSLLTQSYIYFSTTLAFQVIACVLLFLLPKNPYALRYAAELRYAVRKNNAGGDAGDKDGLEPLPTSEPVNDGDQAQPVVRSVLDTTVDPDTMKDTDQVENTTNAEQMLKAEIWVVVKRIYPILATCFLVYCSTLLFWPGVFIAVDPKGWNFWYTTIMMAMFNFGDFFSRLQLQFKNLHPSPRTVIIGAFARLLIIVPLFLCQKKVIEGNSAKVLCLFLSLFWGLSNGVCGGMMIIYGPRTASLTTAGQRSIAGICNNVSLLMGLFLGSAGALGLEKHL

SMILES	EC50 (L. mexicana SUPKO+TvxNT3; Leishmania mexicana)	EC50 (L. mexicana SUPKO+TcoAT1; Leishmania mexicana)	EC50 (L. mexicana SUPKO; [19])	SUPKO RF (Cas9) (L. mexicana SUPKO)	Ki (TcoAT1 [2])	ΔG0 (TcoAT1 [2])	EC50 (T. vivax [3])	EC50 (T. congolense 6C3 [4])	T. congolense 6C3 RF (T. congolense 6C3 [4])	EC50 (T. congolense IL3000 [6]; BSF, resazurin)	EC50 (L. mexicana Cas9; Leishmania mexicana)	EC50 (T.b.b. B48 [7])	EC50 (T. congolense IL3000 [6])	EC50 [9]	SI T. congolense [10]	SI T. equiperdum [10]	SI T. evansi [10]	SUPKO+TvxNT3 RF (SUPKO) (L. mexicana SUPKO+TvxNT3)	SUPKO+TcoAT1 RF (SUPKO) (L. mexicana SUPKO+TcoAT1)	EC50 (T. evansi [11])	other results
Nc1ncnc2c1ncn2[C@@H]1O[C@H](CO)C[C@H]1O [Cordycepin, 3′-deoxyadenosine]	> 100 µM	> 100 µM	> 100 µM	>1.09	4.59 µM and 4.6 µM	-30.5 kJ/mol	0.12 ± 0.02 µM	2.16 ± 0.44 µM	0.88	2.46 ± 0.42 µM	91.6 ± 12.9 µM	–	–	–	–	–	–	–	–	–	Ki [1]: 12 ± 2 µM; fold difference in affinity compared to adenosine (TcoAT1 [2]): 10 fold; δ(ΔG0) (TcoAT1 [2]; loss of Gibbs free energy of binding relative to the parent nucleoside): 5.94 kJ/mol; δ(ΔG0) (TvxNT3; difference in ΔG0 relative to the parent purine (adenosine or inosine)): -4.47 kJ/mol; Ki ([5]; T. b. brucei bloodstream forms, read-out: Tbb P1 Ki): 210 ± 48 µM; Tbb P1 ΔG0 [5]: -21.0 kJ/mol; resistance of the TbAT1-KO strain (T. brucei TbAT1-KO): 17 fold
N=C(N)c1ccc(/N=N/Nc2ccc(C(=N)N)cc2)cc1 [Diminazene, reference compound]	–	–	–	1.27	–	–	–	1.32 ± 0.43 µM	5.7 ^a	–	–	0.34 ± 0.13 µM	0.23 ± 0.04 µM	–	–	–	–	–	–	–	effect of the expression of TcoAT1 on the uptake of the trypanocide (TcoAT1 [8]): no effect
Nc1ncnc2c1c(F)cn2[C@@H]1O[C@H](CO)[C@@H](O)[C@H]1O [FH3167, 7-deaza-7-fluoroadenosine]	57.2 ± 6.8 µM	7.5 ± 0.9 µM	63.4 ± 5.5 µM	660	–	–	0.038 ± 0.006 µM	0.48 ± 0.1 µM	1.06	0.45 ± 0.62 µM	0.096 ± 0.009 µM	0.16 ± 0.03 µM	–	0.49 ± 0.05 µM	1.1	15	2.7	1.1	8.48	–	EC50 (T. evansi [11]; resazurin): 0.18 ± 0.023 µM; EC50 (T. equiperdum [12]; resazurin): 0.032 ± 0.007 µM
Nc1ncnc2c1c(C(F)(F)F)cn2[C@@H]1O[C@H](CO)[C@@H](O)[C@H]1O [FH6367, 7-trifluoromethyl-7-deazaadenosine]	7.4 ± 1.4 µM	3.79 ± 0.34 µM	> 100 µM	>3.83	–	–	0.82 ± 0.09 µM	0.89 ± 0.17 µM	0.50	–	26.1 ± 6.4 µM	0.9 ± 0.13 µM	1.8 ± 0.44 µM	0.49 ± 0.01 µM	0.3	2.6	0.7	>13.5	>26.4	0.68 ± 0.11 µM	EC50 (T. equiperdum [12]): 0.19 ± 0.03 µM
Nc1ncnc2c1c(Br)cn2[C@@H]1O[C@H](CO)C[C@H]1O [FH7429_u, 7-bromo-7-deaza-3′-deoxyadenosine]	42.9 ± 12 µM	27 ± 5.8 µM	> 250 µM	>3.6	259 ± 11 µM	-20.5 kJ/mol	0.018 ± 0.003 µM	0.00049 ± 9e-05 µM	0.71	–	27.3 ± 7 µM	0.0048 ± 0.0005 µM	0.00069 ± 7e-05 µM	2.18 ± 0.41 µM	3158	4271	2430	>2.33	>7.4	0.0009 ± 0.00022 µM	ΔG0 (TvxNT3; Gibbs free energy of interaction, from Km or Ki): -21.5 kJ/mol; EC50 (T. equiperdum [12]): 0.00051 ± 7e-05 µM
Nc1ncnc2c1c(-c1ccccn1)cn2[C@@H]1O[C@H](CO)[C@@H](O)[C@H]1O [TH1008]	–	–	–	>8.5	–	–	12.9 ± 4.4 µM	–	0.33	–	–	–	–	–	110	303	466	–	–	–	EC50 (T. congolense 6C3 [13]): 0.056 ± 0.013 µM; EC50 (T. evansi [14]): 0.04 ± 0.005 µM; fold higher EC50 against T. vivax compared to T. congolense (T. vivax [15]): 10–165 fold; EC50 ([10]; resazurin, 96 well plates, read-out: HEK EC50): 18.5 ± 1.5 µM; EC50 (L. mexicana SUPKO+TvxNT3; resazurin, promastigotes): > 100 µM; EC50 (L. mexicana SUPKO+TcoAT1; resazurin, promastigotes): > 100 µM; EC50 (L. mexicana SUPKO; resazurin, promastigotes, read-out: SUPKO EC50): > 100 µM; EC50 (T. congolense IL3000 [16]): 0.17 ± 0.05 µM; EC50 (T.b.b. B48 [17]): 0.39 ± 0.03 µM; EC50 (L. mexicana Cas9; resazurin, promastigotes): 11.7 ± 0.5 µM; EC50 (T. equiperdum [18]): 0.061 ± 0.005 µM
